{"source": "patent US11534457B2", "about": "“Use of dextran sulfate” (priority 2017, dated 2022)", "system": "severe traumatic brain injury (sTBI)", "assay": "sTBI in rats, brain gene expression arrays and pathway analysis (Example 9)", "type": "in vivo, Male Wistar rats", "protocol": "The experimental protocol used in this study was approved by the Ethical Committee of the Catholic University of Rome, according to international standards and guidelines for animal care. Male Wistar rats of 300-350 g body weight were fed with standard laboratory diet and water ad libitum in a controlled environment. As the anesthetic mixture, the animals received 35 mg/kg b.w. ketamine and 0.25 mg/kg body weight midazolam by i.p. injection. Severe traumatic brain injury (sTBI) was induced by dropping a 450 g weight from 2 m height on to the rat head that had been protected by a metal disk previously fixed on the skull, according to the “weight drop” impact acceleration model (Marmarou et al., A new model of diffuse brain injury in rats. Part I: Pathophysiology and biomechanics. J Neurosurg. 1994; 80: 291-300). […] At the end of each period of treatment, rats were anesthetized again and then immediately sacrificed.\nLMW-DS (Tikomed AB) was provided at a stock concentration of 20 mg/ml and was kept in a temperature-monitored refrigerator at 4° C. LMW-DS aliquots were diluted to the appropriate dosing concentration in sterile saline prior to delivery of a single subcutaneous injection.\nThree doses of LMW-DS were administered subcutaneously 30 minutes post-TBI. The animals were sacrificed at 2 days post-TBI. The animals were divided into the following subgroups:\nThree doses of LMW-DS were administered subcutaneously 30 minutes post-TBI. The animals were sacrificed at 7 days post-TBI. The animals were divided into the following subgroups:\nAn in vivo craniectomy was performed on all animals during anesthesia. After carefully removing the rat's skull, the brain was exposed and removed with a surgical spatula and quickly dropped in RNALater and preserved at 4° C. for further processing.\nRNA extraction and array processing was carried out by SourceBioscience. The arrays used were the Agilent Rat expression arrays.\nStatistical analysis was carried out using the Metaboanalyst software package. Gene expression changes of 10% with a p<0.05 were regarded as significant.\nPathway analysis of the differentially regulated genes was carried out using the Ingenuity pathway analysis package. The analysis was performed with special reference to pathways and molecular processes and diseases associated with neurodegenerative disease, including dementia, Alzheimer's disease, ALS, TBI and stroke, and with scarring and fibrosis, including glaucoma and normal pressure hydrocephalus (NPH) after subarachnoid haemorrhage.", "key": {"[1]": {"conditions": "TBI + 1 mg/kg LMW-DS, 2 days after TBI"}, "[2]": {"conditions": "TBI + 1 mg/kg LMW-DS, 7 days after TBI"}, "[3]": {"conditions": "TBI + 1 mg/kg LMW-DS, 7 days after TBI, relative to control"}, "[4]": {"conditions": "TBI + 1 mg/kg LMW-DS, after 7 days, TBI: Activated"}, "[5]": {"conditions": "TBI + 1 mg/kg LMW-DS, after 7 days, TBI: Inhibited"}, "[6]": {"conditions": "TBI + 5 mg/kg LMW-DS, 2 days after TBI"}}, "data": [{"substance": "low molecular weight dextran sulfate [LMW-DS]", "values": [{"measurement": "Diseases or functions annotation: Migration of cells", "setting": "[1]", "value": "Activated"}, {"measurement": "Diseases or functions annotation: Necrosis", "setting": "[1]", "value": "Inhibited"}, {"measurement": "Diseases or functions annotation: Non-hematologic malignant neoplasm", "setting": "[1]", "value": "Inhibited"}, {"measurement": "Diseases or functions annotation: Pelvic tumor", "setting": "[1]", "value": "Inhibited"}, {"measurement": "Diseases or functions annotation: Proliferation of blood cells", "setting": "[1]", "value": "Inhibited"}, {"measurement": "Diseases or functions annotation: Proliferation of lymphatic system cells", "setting": "[1]", "value": "Inhibited"}, {"measurement": "Diseases or functions annotation: Proliferation of lymphocytes", "setting": "[1]", "value": "Inhibited"}, {"measurement": "Diseases or functions annotation: Quantity of blood cells", "setting": "[1]", "value": "Inhibited"}, {"measurement": "Diseases or functions annotation: Quantity of bone", "setting": "[1]", "value": "Inhibited"}, {"measurement": "Diseases or functions annotation: Quantity of cells", "setting": "[1]", "value": "Inhibited"}, {"measurement": "Diseases or functions annotation: Quantity of connective tissue cells", "setting": "[1]", "value": "Activated"}, {"measurement": "Diseases or functions annotation: Quantity of leukocytes", "setting": "[1]", "value": "Inhibited"}, {"measurement": "Diseases or functions annotation: Quantity of lymphatic system cells", "setting": "[1]", "value": "Inhibited"}, {"measurement": "Diseases or functions annotation: Quantity of phagocytes", "setting": "[1]", "value": "Inhibited"}, {"measurement": "Diseases or functions annotation: Rheumatic Disease", "setting": "[1]", "value": "Inhibited"}, {"measurement": "Diseases or functions annotation: Solid tumor", "setting": "[1]", "value": "Inhibited"}, {"measurement": "Diseases or functions annotation: Survival of organism", "setting": "[1]", "value": "Inhibited"}, {"measurement": "Diseases or functions annotation: Synthesis of hormone", "setting": "[1]", "value": "Activated"}, {"measurement": "Diseases or functions annotation: Thrombus", "setting": "[1]", "value": "Activated"}, {"measurement": "Diseases or functions annotation: Transport of molecule", "setting": "[1]", "value": "Activated"}, {"measurement": "Ingenuity canonical pathway: Adrenomedullin signaling pathway", "setting": "[2]", "value": "Inhibited"}, {"measurement": "Ingenuity canonical pathway: ERK5 Signaling", "setting": "[2]", "value": "Inhibited"}, {"measurement": "Ingenuity canonical pathway: Endothelin-1 Signaling", "setting": "[2]", "value": "Activated"}, {"measurement": "Ingenuity canonical pathway: G Beta Gamma Signaling", "setting": "[2]", "value": "Activated"}, {"measurement": "Ingenuity canonical pathway: NF-κB Signaling", "setting": "[2]", "value": "Inhibited"}, {"measurement": "Ingenuity canonical pathway: Opioid Signaling Pathway", "setting": "[2]", "value": "Inhibited"}, {"measurement": "Ingenuity canonical pathway: Role of NFAT in Regulation of the Immune Response", "setting": "[2]", "value": "Activated"}, {"measurement": "Ingenuity canonical pathway: Synaptic Long Term Depression", "setting": "[2]", "value": "Activated"}, {"measurement": "z score: Abdominal cancer", "setting": "[2]", "value": "−2.426"}, {"measurement": "z score: Abdominal carcinoma", "setting": "[2]", "value": "−1.987"}, {"measurement": "z score: Cell movement", "setting": "[2]", "value": "−1.01"}, {"measurement": "z score: Cell viability", "setting": "[2]", "value": "−1.584"}, {"measurement": "z score: Concentration of hormone", "setting": "[2]", "value": "−0.32"}, {"measurement": "z score: Development of connective tissue cells", "setting": "[2]", "value": "−0.005"}, {"measurement": "z score: Development of malignant tumor", "setting": "[2]", "value": "−1.326"}, {"measurement": "z score: Developmental process of synapse", "setting": "[2]", "value": "−0.152"}, {"measurement": "z score: Differentiation of bone cells", "setting": "[2]", "value": "−1.799"}, {"measurement": "z score: Differentiation of connective tissue cells", "setting": "[2]", "value": "−0.349"}, {"measurement": "z score: Digestive organ tumor", "setting": "[2]", "value": "−1.396"}, {"measurement": "z score: Digestive system cancer", "setting": "[2]", "value": "−1.96"}, {"measurement": "z score: Epithelial neoplasm", "setting": "[2]", "value": "−1.313"}, {"measurement": "z score: Formation of plasma membrane", "setting": "[2]", "value": "−0.152"}, {"measurement": "z score: Frequency of tumor", "setting": "[2]", "value": "−2.128"}, {"measurement": "z score: Gastrointestinal tumor", "setting": "[2]", "value": "−1.029"}, {"measurement": "z score: Hematologic cancer", "setting": "[2]", "value": "−1.067"}, {"measurement": "z score: Hematopoietic neoplasm", "setting": "[2]", "value": "−0.686"}, {"measurement": "z score: Incidence of tumor", "setting": "[2]", "value": "−1.614"}, {"measurement": "z score: Large intestine neoplasm", "setting": "[2]", "value": "−1.192"}, {"measurement": "z score: Liver tumor", "setting": "[2]", "value": "−1.91"}, {"measurement": "z score: Malignant genitourinary solid tumor", "setting": "[2]", "value": "−0.537"}, {"measurement": "z score: Metabolism of hormone", "setting": "[2]", "value": "−1.066"}, {"measurement": "z score: Pelvic tumor", "setting": "[2]", "value": "−1.214"}, {"measurement": "z score: Quantity of Ca^2+", "setting": "[2]", "value": "−0.11"}, {"measurement": "z score: Quantity of carbohydrate", "setting": "[2]", "value": 0.49}, {"measurement": "z score: Quantity of metal", "setting": "[2]", "value": 0.415}, {"measurement": "z score: Synthesis of lipid", "setting": "[2]", "value": 0.033}, {"measurement": "z score: Tumorigenesis of epithelial neoplasm", "setting": "[2]", "value": "−1.981"}, {"measurement": "z score: Tumorigenesis of tissue", "setting": "[2]", "value": "−0.998"}, {"measurement": "z score: Vaso-occlusion", "setting": "[2]", "value": 1.264}, {"measurement": "z score: Weight gain", "setting": "[2]", "value": 0.625}, {"measurement": "Ingenuity canonical pathway Adrenomedullin signaling pathway, z score", "setting": "[3]", "value": "−1"}, {"measurement": "Ingenuity canonical pathway ERK5 Signaling, z score", "setting": "[3]", "value": "−2"}, {"measurement": "Ingenuity canonical pathway Endothelin-1 Signaling, z score", "setting": "[3]", "value": 1.342}, {"measurement": "Ingenuity canonical pathway G Beta Gamma Signaling, z score", "setting": "[3]", "value": 1}, {"measurement": "Ingenuity canonical pathway NF-κB Signaling, z score", "setting": "[3]", "value": "−0.447"}, {"measurement": "Ingenuity canonical pathway Opioid Signaling Pathway, z score", "setting": "[3]", "value": "−0.447"}, {"measurement": "Ingenuity canonical pathway Role of NFAT in Regulation of the Immune Response, z score", "setting": "[3]", "value": 0.816}, {"measurement": "Ingenuity canonical pathway Synaptic Long Term Depression, z score", "setting": "[3]", "value": 1.342}, {"measurement": "Ingenuity canonical pathway mTOR Signaling, z score", "setting": "[3]", "value": 1}, {"measurement": "Diseases or functions annotation: Development of malignant tumor", "setting": "[4]", "value": "Inhibited"}, {"measurement": "Diseases or functions annotation: Digestive organ tumor", "setting": "[4]", "value": "Inhibited"}, {"measurement": "Diseases or functions annotation: Frequency of tumor", "setting": "[4]", "value": "Inhibited"}, {"measurement": "Diseases or functions annotation: Gastrointestinal tumor", "setting": "[4]", "value": "Inhibited"}, {"measurement": "Diseases or functions annotation: Hematologic cancer", "setting": "[4]", "value": "Inhibited"}, {"measurement": "Diseases or functions annotation: Hematopoietic neoplasm", "setting": "[4]", "value": "Inhibited"}, {"measurement": "Diseases or functions annotation: Incidence of tumor", "setting": "[4]", "value": "Inhibited"}, {"measurement": "Diseases or functions annotation: Large intestine neoplasm", "setting": "[4]", "value": "Inhibited"}, {"measurement": "Diseases or functions annotation: Vaso-occlusion", "setting": "[4]", "value": "Activated"}, {"measurement": "Diseases or functions annotation: Abdominal cancer", "setting": "[5]", "value": "Inhibited"}, {"measurement": "Diseases or functions annotation: Abdominal carcinoma", "setting": "[5]", "value": "Inhibited"}, {"measurement": "Diseases or functions annotation: Cell movement", "setting": "[5]", "value": "Inhibited"}, {"measurement": "Diseases or functions annotation: Cell viability", "setting": "[5]", "value": "Inhibited"}, {"measurement": "Diseases or functions annotation: Concentration of hormone", "setting": "[5]", "value": "Inhibited"}, {"measurement": "Diseases or functions annotation: Development of connective tissue cells", "setting": "[5]", "value": "Inhibited"}, {"measurement": "Diseases or functions annotation: Developmental process of synapse", "setting": "[5]", "value": "Inhibited"}, {"measurement": "Diseases or functions annotation: Differentiation of bone cells", "setting": "[5]", "value": "Inhibited"}, {"measurement": "Diseases or functions annotation: Differentiation of connective tissue cells", "setting": "[5]", "value": "Inhibited"}, {"measurement": "Diseases or functions annotation: Digestive system cancer", "setting": "[5]", "value": "Inhibited"}, {"measurement": "Diseases or functions annotation: Epithelial neoplasm", "setting": "[5]", "value": "Inhibited"}, {"measurement": "Diseases or functions annotation: Formation of plasma membrane", "setting": "[5]", "value": "Inhibited"}, {"measurement": "Diseases or functions annotation: Liver tumor", "setting": "[5]", "value": "Inhibited"}, {"measurement": "Diseases or functions annotation: Malignant genitourinary solid tumor", "setting": "[5]", "value": "Inhibited"}, {"measurement": "Diseases or functions annotation: Metabolism of hormone", "setting": "[5]", "value": "Inhibited"}, {"measurement": "Diseases or functions annotation: Pelvic tumor", "setting": "[5]", "value": "Inhibited"}, {"measurement": "Diseases or functions annotation: Quantity of Ca^2+", "setting": "[5]", "value": "Inhibited"}, {"measurement": "Diseases or functions annotation: Quantity of carbohydrate", "setting": "[5]", "value": "Activated"}, {"measurement": "Diseases or functions annotation: Quantity of metal", "setting": "[5]", "value": "Activated"}, {"measurement": "Diseases or functions annotation: Synthesis of lipid", "setting": "[5]", "value": "Activated"}, {"measurement": "Diseases or functions annotation: Tumorigenesis of epithelial neoplasm", "setting": "[5]", "value": "Inhibited"}, {"measurement": "Diseases or functions annotation: Tumorigenesis of tissue", "setting": "[5]", "value": "Inhibited"}, {"measurement": "Diseases or functions annotation: Weight gain", "setting": "[5]", "value": "Activated"}, {"measurement": "Diseases or functions annotation: Abdominal cancer", "setting": "[6]", "value": "Inhibited"}, {"measurement": "Diseases or functions annotation: Abdominal carcinoma", "setting": "[6]", "value": "Inhibited"}, {"measurement": "Diseases or functions annotation: Abdominal neoplasm", "setting": "[6]", "value": "Inhibited"}]}]}
